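Step 1: Grow cells in 96-well plates. Step 2: Expose to compound for 48 hours at 5 concentrations. Step 3: Interpolate endpoints linearly; if unreached, use highest concentration. The concentration for 50% growth inhibition is given as GI50. At the TGI there is no net growth.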
Legend:
Assay in all cases: growth of human tumour cells (NCI), 48 h
[1] = test system: CCRF-CEM leukemia
[2] = test system: SN12C renal
[3] = test system: TK-10 renal
[4] = test system: K-562 leukemia
[5] = test system: MOLT-4 leukemia
[6] = test system: SF-295 CNS
[7] = test system: SF-539 CNS
[8] = test system: PC-3 prostate
[9] = test system: BT-549 breast
[10] = test system: HCT-116 colon
[11] = test system: HCT-15 colon
[12] = test system: HL-60(TB) leukemia
[13] = test system: KM12 colon
[14] = test system: SNB-19 CNS
[15] = test system: NCI-H23 lung
[16] = test system: MALME-3M melanoma
[17] = test system: SK-MEL-5 melanoma
[18] = test system: M14 melanoma
[19] = test system: SK-OV-3 ovarian
[20] = test system: T-47D breast
[21] = test system: SF-268 CNS
[22] = test system: RXF 393 renal
[23] = test system: A498 renal
[24] = test system: OVCAR-5 ovarian
[25] = test system: SW-620 colon
[26] = test system: SK-MEL-28 melanoma
[27] = test system: UO-31 renal
[28] = test system: NCI-H460 lung
[29] = test system: UACC-257 melanoma
[30] = test system: ACHN renal
[31] = test system: CAKI-1 renal
[32] = test system: HOP-62 NSCLC
[33] = test system: OVCAR-3 ovarian
[34] = test system: NCI-H522 lung
[35] = test system: OVCAR-8 ovarian
[36] = test system: NCI-H226 lung
[37] = test system: 786-0 renal
[38] = test system: MCF7 breast
[39] = test system: RPMI-8226 leukemia
[40] = test system: HS 578T breast
[41] = test system: SNB-75 CNS
[42] = test system: A549 NSCLC
[43] = test system: UACC-62 melanoma
[44] = test system: COLO 205 colon
[45] = test system: MDA-MB-231 breast
[46] = test system: DU-145 prostate
[47] = test system: MDA-MB-435
[48] = test system: SR leukemia
[49] = test system: NCI/ADR-RES ovarian
[50] = test system: HT29 colon
[51] = test system: IGROV1 ovarian
[52] = test system: HCC-2998 colon
[53] = test system: OVCAR-4 ovarian

## FC(F)(F)c1ccc(-c2cnc(-c3ncon3)nc2NC2CCCCCC2)cc1
[1]
  GI50: 22.9 µM
  TGI: 60.4 µM
[2]
  GI50: 21.4 µM
  TGI: 63 µM
[3]
  GI50: > 100 µM
  TGI: > 100 µM
[4]
  GI50: 34.8 µM
  TGI: > 100 µM
[5]
  GI50: 19.8 µM
  TGI: 55 µM
[6]
  GI50: 34.5 µM
  TGI: > 100 µM
[7]
  GI50: > 100 µM
  TGI: > 100 µM
[8]
  GI50: 24.6 µM
  TGI: 86.5 µM
[9]
  GI50: 38.5 µM
  TGI: > 100 µM
[10]
  GI50: 33.9 µM
  TGI: > 100 µM
[11]
  GI50: 34.3 µM
  TGI: > 100 µM
[12]
  GI50: 22.3 µM
  TGI: 48 µM
[13]
  GI50: 36.3 µM
  TGI: > 100 µM
[14]
  GI50: 29.2 µM
  TGI: > 100 µM
[15]
  GI50: 37 µM
  TGI: > 100 µM
[16]
  GI50: 49.8 µM
  TGI: > 100 µM
[17]
  GI50: 40.7 µM
  TGI: > 100 µM
[18]
  GI50: 56.3 µM
  TGI: > 100 µM
[19]
  GI50: > 100 µM
  TGI: > 100 µM
[20]
  GI50: 25.6 µM
  TGI: 87.3 µM
[21]
  GI50: 64 µM
  TGI: > 100 µM
[22]
  GI50: 28.9 µM
  TGI: > 100 µM
[23]
  GI50: 42.9 µM
  TGI: > 100 µM
[24]
  GI50: > 100 µM
  TGI: > 100 µM
[25]
  GI50: 43.3 µM
  TGI: > 100 µM
[26]
  GI50: 99.2 µM
  TGI: > 100 µM
[27]
  GI50: 26.4 µM
  TGI: > 100 µM
[28]
  GI50: 37.2 µM
  TGI: > 100 µM
[29]
  GI50: 53.2 µM
  TGI: > 100 µM
[30]
  GI50: 48.6 µM
  TGI: > 100 µM
[31]
  GI50: 67.9 µM
  TGI: > 100 µM
[32]
  GI50: 76.8 µM
  TGI: > 100 µM
[33]
  GI50: 36.8 µM
  TGI: > 100 µM
[34]
  GI50: 14.2 µM
  TGI: 82.6 µM
[35]
  GI50: 32.2 µM
  TGI: > 100 µM
[36]
  GI50: 43.1 µM
  TGI: > 100 µM
[37]
  GI50: 63.6 µM
  TGI: > 100 µM
[38]
  GI50: 31.6 µM
  TGI: > 100 µM
[39]
  GI50: 18.4 µM
  TGI: 49.3 µM
[40]
  GI50: 32.1 µM
  TGI: > 100 µM
[41]
  GI50: 50.5 µM
  TGI: > 100 µM
[42]
  GI50: 38 µM
  TGI: > 100 µM
[43]
  GI50: 48.6 µM
  TGI: > 100 µM
[44]
  GI50: 27.7 µM
  TGI: 84.8 µM
[45]
  GI50: 22.5 µM
  TGI: 89 µM
[46]
  GI50: 63.3 µM
  TGI: > 100 µM
[47]
  GI50: 71.3 µM
  TGI: > 100 µM
[48]
  GI50: 20.4 µM
  TGI: 56.8 µM
[49]
  GI50: 35.3 µM
  TGI: > 100 µM
[50]
  GI50: 34.7 µM
  TGI: > 100 µM
[51]
  GI50: 52.5 µM
  TGI: > 100 µM
[52]
  GI50: 56.6 µM
  TGI: > 100 µM
[53]
  GI50: 37.2 µM
  TGI: > 100 µM

From PubChem BioAssay (NCI)
